The assay concerns the target Adenosine kinase (Homo sapiens, UniProt P55263). In words: Inhibition of human cytosolic AK.
Chain of Adenosine kinase (P55263 whole entry): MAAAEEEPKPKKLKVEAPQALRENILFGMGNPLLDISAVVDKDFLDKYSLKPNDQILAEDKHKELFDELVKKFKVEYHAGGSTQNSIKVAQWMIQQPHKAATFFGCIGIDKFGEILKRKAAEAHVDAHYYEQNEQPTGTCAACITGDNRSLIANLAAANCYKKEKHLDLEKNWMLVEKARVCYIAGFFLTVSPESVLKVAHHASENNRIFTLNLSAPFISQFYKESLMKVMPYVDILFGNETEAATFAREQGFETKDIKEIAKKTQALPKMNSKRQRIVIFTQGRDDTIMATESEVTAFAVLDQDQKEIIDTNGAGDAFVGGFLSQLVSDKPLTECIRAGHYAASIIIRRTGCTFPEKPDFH
`Nc1ncnc(C#Cc2ccc(N3CCOCC3)nc2)c1CCCc1ccccc1`: the IC50 turned out to be 2.5 nM.

The compound `Cc1nc(N)c(-c2ccccc2)c(C#Cc2ccc(N(C)C)cc2)n1` yielded an IC50 above 1000 nM.

`Nc1ncnc(C#Cc2ccc(N3CCOCC3)nc2)c1Cc1ccccc1` showed an IC50 of 40 nM. That is a double-digit nanomolar value.

In the case of `Nc1cc(C#Cc2ccc(N3CCOCC3)nc2)ncn1`, half-maximal inhibition (IC50) was put at 120 nM. This IC50 is about 3-fold higher than that of the compound before. In turn, `CN(C)c1ccc(-c2c(N)ncnc2C#Cc2ccc(N3CCOCC3)nc2)cc1` gave an IC50 of 68 nM.

The compound `CN(C)c1ccc(C#Cc2ncnc(N)c2-c2ccc3c(c2)OCO3)cc1` registered a half-inhibitory concentration (IC50) of 9 nM. Then `CN(C)c1ccc(C#Cc2ncnc(N)c2-c2ccccc2)cc1`, with 20 nM.
